Test results from patent US20260028326A1, “COMPOUND BASED ON ISOINDOLINE-SUBSTITUTED GLUTARIMIDE BACKBONE AND USE THEREOF” (GLUETACS THERAPEUTICS (SHANGHAI) CO., LTD., priority 2022, published 2026).

Experiments:
[1] = target: human Cereblon WT GST-tagged protein (Homo sapiens (Human), UniProt Q96SW2); experiment: CRBN-binding affinity, HTRF (CEREBLON BINDING kit)
In short: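 GST-tagged human WT Cereblon incubated with compound, then Thalidomide-Re tracer and anti-GST Eu antibody added. Displacement read by HTRF, reported as CRBN binding inhibition rate against blank control wells without protein.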

IKZF1 protein = IKZF1 protein (Homo sapiens (Human), UniProt Q13422+Q96SW2); experiment: Western-blot assay of substrate protein degradation in hPBMC, IKZF1; format: cell-based; conditions: hPBMC cells, compound 500 nM, 24 hours, Western blot
IKZF3 protein = IKZF3 protein (Homo sapiens (Human), UniProt Q96SW2+Q9UKT9); experiment: Western-blot assay of substrate protein degradation in hPBMC, IKZF3; format: cell-based; conditions: hPBMC cells, compound 500 nM, 24 hours, Western blot
GSPT1 protein = GSPT1 protein (Homo sapiens (Human), UniProt P15170+Q96SW2); experiment: Western-blot assay of substrate protein degradation in hPBMC, GSPT1; format: cell-based; conditions: hPBMC cells, compound 500 nM, 24 hours, Western blot
[2] = Pharmacokinetic study, oral administration, mouse plasma; format: in vivo, mice
Description: The experimental animals used can be those commonly used in pharmacokinetic experiments, e.g., adult and healthy rodents (e.g., mice, rats (such as Sprague-Dawley (SD) rats), guinea pigs) or non-rodents (rabbits, dogs, and monkeys). In the present disclosure, mice were used as the experimental animals.
The experimental animals were divided into two groups: a control group (for collecting blank plasma) and an orally administered group (dosed at 10 mg/kg or 30 mg/kg). Blood samples were collected at predetermined sampling time points after administration, such as 0.25 h, 0.5 h, 1 h, 2 h, 4 h, 8 h, and 24 h post-dosing. Blank plasma was collected from the control group.
Plasma samples were preprocessed before analysis: 10 μL of 50% acetonitrile and 200 μL of internal standard solution (containing 50 ng/mL dexamethasone in acetonitrile) were added to 10 μL of plasma samples. For the blank control group, the same volume of acetonitrile was added instead of the internal standard. The processed samples were vortexed, centrifuged, and the supernatant was taken for LC-MS/MS injection analysis.
After preparing standard curves and quality control (QC) samples, the concentrations of the compounds in the plasma samples were determined by LC-MS/MS analysis. Based on the plasma concentration data obtained from LC-MS/MS analysis, the pharmacokinetic parameters of the test compounds were calculated using the non-compartmental model in the pharmacokinetic calculation software WinNonlin v8.1.

Mino cells = experiment: Tumor cell proliferation IC50 (CCK-8), Mino; conditions: Homo sapiens, 72 h, read-out: IC50 for inhibiting the proliferation of tumor cells, Mino;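 further: cell viability assessed with CCK-8 reagent after compound exposure, IC50 derived from plotted growth inhibition curves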
SW620 cells = experiment: Tumor cell proliferation IC50 (CCK-8), SW620; conditions: Homo sapiens, SW-620, 96 h, read-out: IC50 for inhibiting the proliferation of tumor cells, SW620
Description: (§1) The tumor cells used herein were cultured in a cell culture medium listed in table A at 37° C. in an incubator with 5% CO2.
(§2) After the cells were treated with the compounds of the present disclosure for a period of time, the cell viability detection reagent was added to the culture medium for cell viability assessment according to the instructions provided with the CCK-8 kit. […] The growth inhibition of the compounds of the present disclosure on cells was plotted by Prism Graphpad software, and the IC50 values of the compounds of the present disclosure were calculated therefrom.

SU-DHL-4 cells = experiment: Tumor cell proliferation IC50 (CCK-8), SU-DHL-4; conditions: Homo sapiens, SU-DHL-4, 72 h, read-out: IC50 for inhibiting the proliferation of tumor cells, SU-DHL-4
Description: (§3) Prior to experimentation, all cells used were correctly identified by STR profiling, and tested negative for mycoplasma through routine screenings.
as §2

TMD8 cells = experiment: Tumor cell proliferation IC50 (CCK-8), TMD8; conditions: Homo sapiens, TMD8, 72 h, read-out: IC50 for inhibiting the proliferation of tumor cells, TMD8
Description: as §1, §2

MM.1S cells = experiment: Tumor cell proliferation IC50 (CCK-8), MM.1S; conditions: Homo sapiens, MM1.S, 72 h, read-out: IC50 for inhibiting the proliferation of tumor cells, MM.1S;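 further: viability of cultured cells read by CCK-8 reagent after compound exposure, growth inhibition curves fitted to derive IC50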
Description: as §1, §2

MM.1R cells = experiment: Tumor cell proliferation IC50 (CCK-8), MM.1R; conditions: Homo sapiens, 72 h, read-out: IC50 for inhibiting the proliferation of tumor cells, MM.1R
Description: as §1, §2

Ramos cells = experiment: Tumor cell proliferation IC50 (CCK-8), Ramos; conditions: Homo sapiens, 72 h, read-out: IC50 for inhibiting the proliferation of tumor cells, Ramos
Description: as §1, §2

Kasumi-1 cells = experiment: Tumor cell proliferation IC50 (CCK-8), Kasumi-1; conditions: Homo sapiens, Kasumi 1, 72 h, read-out: IC50 for inhibiting the proliferation of tumor cells, Kasumi-1
Description: as §1, §2

CCRF-CEM cells = experiment: Tumor cell proliferation IC50 (CCK-8), CCRF-CEM; conditions: Homo sapiens, 96 h, read-out: IC50 for inhibiting the proliferation of tumor cells, CCRF-CEM;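 further: cell viability measured with CCK-8 reagent after compound treatment, IC50 taken from plotted growth inhibition curves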
Description: as §1, §2

MDA-MB-231 cells = experiment: Tumor cell proliferation IC50 (CCK-8), MDA-MB-231; conditions: Homo sapiens, MDA-MB-231, 96 h, read-out: IC50 for inhibiting the proliferation of tumor cells, MDA-MB-231
Description: as §3, §2

SU-DHL-6 cells = experiment: Tumor cell proliferation IC50 (CCK-8), SU-DHL-6; conditions: Homo sapiens, SU-DHL-6, 72 h, read-out: IC50 for inhibiting the proliferation of tumor cells, SU-DHL-6
Description: as §3, §2

Daudi cells = experiment: Tumor cell proliferation IC50 (CCK-8), Daudi; conditions: Homo sapiens, read-out: IC50 for inhibiting the proliferation of tumor cells, Daudi;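 further: cell viability read with CCK-8 reagent after compound exposure of Daudi cells, IC50 derived from plotted growth inhibition curves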
MV-4-11 cells = experiment: Tumor cell proliferation IC50 (CCK-8), MV-4-11; conditions: Homo sapiens, MV4-11, 96 h, read-out: IC50 for inhibiting the proliferation of tumor cells, MV-4-11
Description: as §1, §2

Sequence of IKZF3 protein (Q9UKT9 whole entry): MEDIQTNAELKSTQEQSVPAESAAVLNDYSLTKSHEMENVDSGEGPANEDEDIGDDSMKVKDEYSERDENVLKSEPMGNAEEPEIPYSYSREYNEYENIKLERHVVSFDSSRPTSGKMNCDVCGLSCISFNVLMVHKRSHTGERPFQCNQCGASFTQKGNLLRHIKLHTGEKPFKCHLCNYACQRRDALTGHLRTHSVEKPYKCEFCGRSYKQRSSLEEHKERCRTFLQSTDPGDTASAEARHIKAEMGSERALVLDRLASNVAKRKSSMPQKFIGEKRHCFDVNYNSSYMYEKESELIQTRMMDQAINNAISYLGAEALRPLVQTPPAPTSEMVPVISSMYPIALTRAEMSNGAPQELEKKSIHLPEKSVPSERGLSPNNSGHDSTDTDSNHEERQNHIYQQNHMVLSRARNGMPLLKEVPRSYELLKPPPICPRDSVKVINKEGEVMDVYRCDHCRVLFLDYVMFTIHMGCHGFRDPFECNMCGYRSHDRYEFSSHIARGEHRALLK
Sequence of IKZF3 protein (Q96SW2 whole entry): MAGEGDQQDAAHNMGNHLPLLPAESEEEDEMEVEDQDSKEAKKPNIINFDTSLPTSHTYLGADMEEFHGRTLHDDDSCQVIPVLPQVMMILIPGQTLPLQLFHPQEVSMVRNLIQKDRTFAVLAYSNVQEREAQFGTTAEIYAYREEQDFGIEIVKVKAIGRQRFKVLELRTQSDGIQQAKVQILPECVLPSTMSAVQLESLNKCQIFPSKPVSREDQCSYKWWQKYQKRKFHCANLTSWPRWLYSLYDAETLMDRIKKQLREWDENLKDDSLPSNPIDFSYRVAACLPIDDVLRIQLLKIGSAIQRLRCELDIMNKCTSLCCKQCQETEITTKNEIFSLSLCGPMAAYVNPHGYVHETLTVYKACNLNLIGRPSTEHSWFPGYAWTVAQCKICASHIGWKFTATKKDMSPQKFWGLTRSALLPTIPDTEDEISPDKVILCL
Sequence of IKZF3 protein (Q16531 whole entry partner): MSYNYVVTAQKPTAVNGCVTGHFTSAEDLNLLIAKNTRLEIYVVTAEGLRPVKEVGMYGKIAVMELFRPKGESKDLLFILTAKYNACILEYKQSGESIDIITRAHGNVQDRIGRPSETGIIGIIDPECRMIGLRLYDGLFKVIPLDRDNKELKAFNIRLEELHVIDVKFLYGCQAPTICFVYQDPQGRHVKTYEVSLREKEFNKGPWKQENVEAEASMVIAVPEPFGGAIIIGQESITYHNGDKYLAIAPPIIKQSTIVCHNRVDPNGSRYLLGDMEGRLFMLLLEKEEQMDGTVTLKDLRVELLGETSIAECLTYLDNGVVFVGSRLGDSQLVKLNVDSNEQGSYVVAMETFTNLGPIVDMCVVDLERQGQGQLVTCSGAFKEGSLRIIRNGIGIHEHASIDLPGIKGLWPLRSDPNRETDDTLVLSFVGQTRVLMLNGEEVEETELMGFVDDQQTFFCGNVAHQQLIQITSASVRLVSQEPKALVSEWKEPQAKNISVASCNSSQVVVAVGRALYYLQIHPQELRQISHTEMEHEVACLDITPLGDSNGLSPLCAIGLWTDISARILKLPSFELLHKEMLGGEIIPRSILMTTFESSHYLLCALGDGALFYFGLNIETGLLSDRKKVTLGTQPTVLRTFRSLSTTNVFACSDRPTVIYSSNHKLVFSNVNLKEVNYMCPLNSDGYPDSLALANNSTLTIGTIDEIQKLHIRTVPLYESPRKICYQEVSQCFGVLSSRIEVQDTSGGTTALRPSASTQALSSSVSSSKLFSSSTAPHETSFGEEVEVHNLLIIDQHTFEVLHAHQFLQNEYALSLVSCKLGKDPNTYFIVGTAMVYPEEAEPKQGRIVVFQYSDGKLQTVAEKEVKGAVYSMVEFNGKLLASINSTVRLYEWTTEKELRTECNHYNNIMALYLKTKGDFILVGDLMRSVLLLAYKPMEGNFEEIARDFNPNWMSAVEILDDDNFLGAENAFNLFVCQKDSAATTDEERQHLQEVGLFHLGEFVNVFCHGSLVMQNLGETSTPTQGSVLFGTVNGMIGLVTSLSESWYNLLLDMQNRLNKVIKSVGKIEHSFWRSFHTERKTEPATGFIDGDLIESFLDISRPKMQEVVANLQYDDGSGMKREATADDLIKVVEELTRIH
Sequence of IKZF1 protein (Q13422 whole entry): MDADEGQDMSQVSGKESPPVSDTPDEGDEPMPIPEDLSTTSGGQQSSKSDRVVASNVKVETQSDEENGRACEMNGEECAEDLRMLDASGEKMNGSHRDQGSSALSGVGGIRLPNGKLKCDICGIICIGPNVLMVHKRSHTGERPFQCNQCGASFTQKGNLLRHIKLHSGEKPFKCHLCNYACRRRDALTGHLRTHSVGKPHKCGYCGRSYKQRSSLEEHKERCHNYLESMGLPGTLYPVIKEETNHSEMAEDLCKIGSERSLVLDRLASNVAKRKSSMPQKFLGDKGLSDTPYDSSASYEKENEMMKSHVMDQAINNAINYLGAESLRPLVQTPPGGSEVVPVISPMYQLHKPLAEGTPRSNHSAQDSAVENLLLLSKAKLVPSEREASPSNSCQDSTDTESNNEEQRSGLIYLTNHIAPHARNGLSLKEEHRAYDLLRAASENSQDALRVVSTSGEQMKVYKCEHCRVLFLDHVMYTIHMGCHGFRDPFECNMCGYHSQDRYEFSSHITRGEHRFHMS
Sequence of IKZF1 protein (Q96SW2 whole entry): as the sequence (Q96SW2 whole entry) above
Sequence of IKZF1 protein (Q16531 whole entry partner): as the sequence (Q16531 whole entry partner) above
Sequence of GSPT1 protein (P15170 whole entry): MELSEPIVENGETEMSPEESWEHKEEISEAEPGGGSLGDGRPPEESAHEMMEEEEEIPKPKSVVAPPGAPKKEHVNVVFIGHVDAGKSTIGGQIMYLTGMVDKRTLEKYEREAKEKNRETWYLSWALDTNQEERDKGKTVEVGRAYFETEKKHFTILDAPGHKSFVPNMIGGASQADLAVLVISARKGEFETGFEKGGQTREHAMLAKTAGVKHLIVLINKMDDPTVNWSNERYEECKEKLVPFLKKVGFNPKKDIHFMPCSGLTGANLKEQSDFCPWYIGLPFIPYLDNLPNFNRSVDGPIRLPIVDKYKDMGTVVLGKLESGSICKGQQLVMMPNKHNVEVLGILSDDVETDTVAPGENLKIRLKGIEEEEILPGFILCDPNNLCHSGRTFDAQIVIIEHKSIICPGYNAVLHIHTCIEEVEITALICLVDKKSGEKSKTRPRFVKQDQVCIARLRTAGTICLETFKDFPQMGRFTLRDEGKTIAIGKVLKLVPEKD
Sequence of GSPT1 protein (Q96SW2 whole entry): as the sequence (Q96SW2 whole entry) above
Sequence of GSPT1 protein (Q16531 whole entry partner): as the sequence (Q16531 whole entry partner) above
Sequence of human Cereblon WT GST-tagged protein (Q96SW2 whole entry): as the sequence (Q96SW2 whole entry) above

IC50 [1] [nM]	AUC(0-t) ([2]; p.o. 30 mg/kg) [ng·h/mL]	IC50 (Mino cells) [nM]	IC50 (SW620 cells) [nM]	IC50 (SU-DHL-4 cells) [nM]	IC50 (TMD8 cells) [nM]	IC50 (MM.1S cells) [nM]	IC50 (MM.1R cells) [nM]	IC50 (Ramos cells) [nM]	IC50 (Kasumi-1 cells) [nM]	IC50 (CCRF-CEM cells) [nM]	IC50 (MDA-MB-231 cells) [nM]	IC50 (SU-DHL-6 cells) [nM]	AUC(0-t) ([2]; p.o. 10 mg/kg) [ng·h/mL]	IC50 (Daudi cells) [nM]	IC50 (MV-4-11 cells) [nM]	SMILES	residual substrate protein level, IKZF1 (IKZF1 protein)	residual substrate protein level, IKZF3 (IKZF3 protein)	residual substrate protein level, GSPT1 (GSPT1 protein)
540	> 500	5 to 10	< 5	100 to 500												O=C1CCC(N2Cc3c(ccc(CN4CCN(Cc5ccccc5-c5ccc(Cl)cc5)CC4)c3F)C2=O)C(=O)N1 (stereo not drawn) [GT-03694, 3-(5-((4-((4′-chloro-[1,1′-biphenyl]-2-yl)methyl)piperazin-1-yl)methyl)-4-fluoro-1-oxoisoindolin-2-yl)piperidine-2,6-dione]	A (A represents a residual substrate protein level of <50%)	A (A represents a residual substrate protein level of <50%)	A (A represents a residual substrate protein level of <50%)
1830	> 500			100 to 500	10 to 50	< 5	5 to 10	10 to 50	< 5	< 5	< 5	1000 to 5000				CC1(C)CCC(CN2CCN(Cc3cc4c(cc3F)C(=O)N(C3CCC(=O)NC3=O)C4)CC2)=C(c2ccc(Cl)cc2)C1 (stereo not drawn) [GT-03578, 3-(5-((4-((4′-chloro-5,5-dimethyl-3,4,5,6-tetrahydro-[1,1′-biphenyl]-2-yl)methyl)piperazin-1-yl)methyl)-6-fluoro-1-oxoisoindolin-2-yl)piperidine-2,6-dione]	A (A represents a residual substrate protein level of <50%)	A (A represents a residual substrate protein level of <50%)	A (A represents a residual substrate protein level of <50%)
1170	> 500	5 to 10	5 to 10	50 to 100												O=C1CCC(N2Cc3cc(CN4CCN(Cc5ccccc5-c5ccc(Cl)cc5)CC4)c(F)cc3C2=O)C(=O)N1 (stereo not drawn) [GT-03695, 3-(5-((4-((4′-chloro-[1,1′-biphenyl]-2-yl)methyl)piperazin-1-yl)methyl)-6-fluoro-1-oxoisoindolin-2-yl)piperidine-2,6-dione]	A (A represents a residual substrate protein level of <50%)	A (A represents a residual substrate protein level of <50%)	A (A represents a residual substrate protein level of <50%)

The next lines start with the molecule.

SMILES	IC50 [1] [nM]	AUC(0-t) ([2]; p.o. 30 mg/kg) [ng·h/mL]	IC50 (Mino cells) [nM]	IC50 (SW620 cells) [nM]	IC50 (SU-DHL-4 cells) [nM]	IC50 (TMD8 cells) [nM]	IC50 (MM.1S cells) [nM]	IC50 (MM.1R cells) [nM]	IC50 (Ramos cells) [nM]	IC50 (Kasumi-1 cells) [nM]	IC50 (CCRF-CEM cells) [nM]	IC50 (MDA-MB-231 cells) [nM]	IC50 (SU-DHL-6 cells) [nM]	AUC(0-t) ([2]; p.o. 10 mg/kg) [ng·h/mL]	IC50 (Daudi cells) [nM]	IC50 (MV-4-11 cells) [nM]	residual substrate protein level, IKZF1 (IKZF1 protein)	residual substrate protein level, IKZF3 (IKZF3 protein)	residual substrate protein level, GSPT1 (GSPT1 protein)
CC1(C)CCC(CN2CCN(Cc3ccc4c(c3F)CN(C3CCC(=O)NC3=O)C4=O)CC2)=C(c2ccc(Cl)cc2)C1 (stereo not drawn) [GT-03468, 3-(5-((4-((4′-chloro-5,5-dimethyl-3,4,5,6-tetrahydro-[1,1′-biphenyl]-2-yl)methyl)piperazin-1-yl)methyl)-4-fluoro-1-oxoisoindolin-2-yl)piperidine-2,6-dione]	2960	> 500	100 to 500	10 to 50	5000 to 10000	100 to 500	10 to 50	10 to 50	100 to 500	10 to 50	10 to 50	10 to 50					A (A represents a residual substrate protein level of <50%)	A (A represents a residual substrate protein level of <50%)	A (A represents a residual substrate protein level of <50%)
O=C1CCC(N2Cc3cc(-c4ccc(CN5CCN(Cc6ccccc6-c6ccc(Cl)cc6)CC5)cc4)ccc3C2=O)C(=O)N1 (stereo not drawn) [GT-03356, 3-(5-(4-((4-((4′-chloro-[1,1′-biphenyl]-2-yl)methyl)piperazin-1-yl)methyl)phenyl)-1-oxoisoindolin-2-yl)piperidine-2,6-dione]									5000 to 10000		1000 to 5000		100 to 500						
CC1(C)CCC(CN2CCN(Cc3cc(F)c4c(c3)CN(C3CCC(=O)NC3=O)C4=O)CC2)=C(c2ccc(Cl)cc2)C1 (stereo not drawn) [GT-03469, 3-(5-((4-((4′-chloro-5,5-dimethyl-3,4,5,6-tetrahydro-[1,1′-biphenyl]-2-yl)methyl)piperazin-1-yl)methyl)-7-fluoro-1-oxoisoindolin-2-yl)piperidine-2,6-dione]	2120										1000 to 5000	100 to 500							
CC1(C)CCC(CN2CCN(Cc3ccc4c(c3)CN(C3CCC(=O)NC3=O)C4=O)CC2)=C(c2ccc(Cl)cc2)C1 (stereo not drawn) [GT-02785, 3-(5-((4-((4′-chloro-5,5-dimethyl-3,4,5,6-tetrahydro-[1,1′-biphenyl]-2-yl)methyl)piperazin-1-yl)methyl)-1-oxoisoindolin-2-yl)piperidine-2,6-dione]	3070		5 to 10	50 to 100		100 to 500	< 5	10 to 50	100 to 500	50 to 100	10 to 50	50 to 100		> 500	159	24	A (A represents a residual substrate protein level of <50%)	A (A represents a residual substrate protein level of <50%)	A (A represents a residual substrate protein level of <50%)
CC1(C)CCC(CN2CCN(Cc3ccc4c(c3)CN(C3CCC(=O)NC3=O)C4=O)CC2)=C(c2ccc(F)cc2)C1 (stereo not drawn) [GT-03454, 3-(5-((4-((4′-fluoro-5,5-dimethyl-3,4,5,6-tetrahydro-[1,1′-biphenyl]-2-yl)methyl)piperazin-1-yl)methyl)-1-oxoisoindolin-2-yl)piperidine-2,6-dione]	410					1000 to 5000		100 to 500	1000 to 5000		10 to 50						A (A represents a residual substrate protein level of <50%)	A (A represents a residual substrate protein level of <50%)	A (A represents a residual substrate protein level of <50%)
